Data as given in patent publication EP0368410A2, “Optically active benzoxazines and bezothiazines and a process for their stereospecific preparation” (GIST-BROCADES N.V., priority 1988, dated 1990).
Converted amounts (≈) assume the structure as drawn. Like-named read-outs stand apart in the source and are kept apart here.

Tests used:
[1] = system: Staph. aureus; settings: bacterium 1 of Table II (Staph. aureus); from EP 0165375; cited from earlier work
[2] = system: E. coli; settings: bacterium 2 of Table II (E. coli); from EP 0165375; cited from earlier work
[3] = system: Ps. aeruginosa; settings: bacterium 4 of Table II (Ps. aeruginosa); from EP 0165375; cited from earlier work
[4] = system: E. coli; assay: Antibacterial activity, MIC and MBC (Table II); format: cell-based; settings: Escherichia coli, assay in duplicate (two lines); for MBC: Minimum Bactericidal Concentration; for MIC: Minimum Inhibitory Concentration
Excerpt: (§1) GBR 23790 is (S)-9-fluoro-3-methyl-10-(4-methyl-1-piperazinyl)-2,3-dihydro-7-oxo-7H-pyrido[1,2,3-de][1,4]-benzothiazine-6-carboxylic acid, which is S-ofloxacin, but with the ring oxygen atom substituted by a ring sulfur atom. • MIC = Minimum Inhibitory Concentration (mg/I) • MBC = Minimum Bactericidal Concentration (mg/I) Each assay has been carried out in duplicate. GBR 23790 in racemic form is known from EP 0165375 (compound (p) in Table I). Its MIC-values, are for bacteria 1, 2 and 4 in the above Table II, resp. 0.78, 0.78 and 50.

[5] = system: Ps. aeruginosa; assay: Antibacterial activity, MIC and MBC (Table II); format: cell-based; settings: assay in duplicate (two lines); for MBC: Minimum Bactericidal Concentration; for MIC: Minimum Inhibitory Concentration
Excerpt: as §1

[6] = system: Strep. faecalis; assay: Antibacterial activity, MIC and MBC (Table II); format: cell-based; settings: Enterococcus faecalis, assay in duplicate (two lines); for MBC: Minimum Bactericidal Concentration; for MIC: Minimum Inhibitory Concentration
Excerpt: as §1

[7] = system: Staph. aureus; assay: Antibacterial activity, MIC and MBC (Table II); format: cell-based; settings: Minimum Inhibitory Concentration, assay in duplicate (two lines)
Excerpt: as §1

[8] = Gerster c.s., 25th Intersc. Conf. Antimicrob. Agents and Chemotherapy, 1985; cited from earlier work
[9] = Pseudomonas aeruginosa, read-out: MBC

Row | SMILES | MBC [4] [µg/mL] | MIC [4] [µg/mL] | MBC [5, 9] [µg/mL] | MIC ([5]; Pseudomonas aeruginosa) [µg/mL] | MBC [6] [µg/mL] | MIC [6] [µg/mL] | antibacterial activity in vitro [8] | other results
1 | CC1CSc2c(N3CCN(C)CC3)c(F)cc3c(=O)c(C(=O)O)cn1c23 (racemic) [GBR 23790 in racemic form] | – | – | – | – | – | – | – | MIC-values [1]: 0.78 mg/I; MIC-values [2]: 0.78 mg/I; MIC-values [3]: 50 mg/I
2 | C[C@H]1COc2c(N3CCN(C)CC3)c(F)cc3c(=O)c(C(=O)O)cn1c23 [(S)-ofloxacin, (S)-(-)-9-Fluoro-2,3-dihydro-3-methyl-10-(4-methyl-1-piperazinyl)-7-oxo-7H-pyrido[1,2,3-de][i ,4]benzoxazine-6-carboxylic acid] | 0.04 (≈ 0.111 µM) | 0.04 (≈ 0.111 µM) | 0.63 (≈ 1.74 µM) | 0.63 (≈ 1.74 µM) | 1.25 (≈ 3.46 µM) | 1.25 (≈ 3.46 µM) | – | MBC [5]: 1.25 mg/I
3 | C[C@H]1CSc2c(N3CCN(C)CC3)c(F)cc3c(=O)c(C(=O)O)cn1c23 [GBR 23790, (S)-9-fluoro-3-methyl-10-(4-methyl-1-piperazinyl)-2,3-dihydro-7-oxo-7H-pyrido[1,2,3-de][1,4]-benzothiazine-6-carboxylic acid] | 0.08 (≈ 0.212 µM) | 0.08 (≈ 0.212 µM) | 2.5 (≈ 6.62 µM) | 1.25 (≈ 3.31 µM) | 2.5 (≈ 6.62 µM) | 1.25 (≈ 3.31 µM) | – | MIC [7]: 0.16 mg/I; MIC ([7]; Staphylococcus aureus, read-out: MIC): 0.08 µg/mL (≈ 0.212 µM)
4 | Cc1c(F)cc2c(=O)c(C(=O)O)cn3c2c1CCC3C (single isomer, unassigned) [(R)-(+)-isomer, 6,7-dihydro-5,8-dimethyl-9-fluoro-1-oxo-1 H,5H-benzo[ij]quinolizine-2-carboxylic acid] | – | – | – | – | – | – | much less active | –
5 | Cc1c(F)cc2c(=O)c(C(=O)O)cn3c2c1CC[C@@H]3C [(S)-(-)-isomer of 6,7-dihydro-5,8-dimethyl-9-fluoro-1-oxo-1 ] [6,7-dihydro-5,8-dimethyl-9-fluoro-1-oxo-1 H,5H-benzo[ij]quinolizine-2-carboxylic acid] | – | – | – | – | – | – | potent antibacterial activity | –
